Earlier results in patent US11833140B2, “Compositions and methods for treating, ameliorating and preventing H. pylori infections” (priority 2017, dated 2023).

How the values were obtained:
CYP3A4 = CYP3A4 (Homo sapiens, UniProt P08684)
[1] = after a single 20 mg ingestion
H^+/K^+—ATPAs = target: T1, H^+/K^+—ATPAs (Homo sapiens, UniProt P20648); settings: within 4 hours of its first administration in humans
T1 construct: increase intragastric pH to at least over pH 4.0 within 4 hours of its first administration in humans; host or cells: human stomach in vivo

[2] = compared with conventional PPI's
H. pylori (HP) = settings: first line therapy, with amoxicillin and clarithromycin

Sequence of CYP3A4 (P08684 whole entry): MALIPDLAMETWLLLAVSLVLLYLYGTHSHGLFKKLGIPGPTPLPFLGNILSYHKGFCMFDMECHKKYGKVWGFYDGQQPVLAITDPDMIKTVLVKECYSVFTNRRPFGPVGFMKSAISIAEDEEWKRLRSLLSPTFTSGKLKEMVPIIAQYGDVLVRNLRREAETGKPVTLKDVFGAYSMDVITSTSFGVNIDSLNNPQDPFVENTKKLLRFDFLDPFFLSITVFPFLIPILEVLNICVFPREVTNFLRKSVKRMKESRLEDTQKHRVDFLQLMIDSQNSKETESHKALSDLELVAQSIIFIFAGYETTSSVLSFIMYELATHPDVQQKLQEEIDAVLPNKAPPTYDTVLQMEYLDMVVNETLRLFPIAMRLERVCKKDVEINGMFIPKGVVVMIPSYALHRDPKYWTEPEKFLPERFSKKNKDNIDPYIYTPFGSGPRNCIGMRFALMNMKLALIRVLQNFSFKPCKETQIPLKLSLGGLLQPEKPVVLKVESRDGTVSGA
T1 sequence (P20648 whole entry): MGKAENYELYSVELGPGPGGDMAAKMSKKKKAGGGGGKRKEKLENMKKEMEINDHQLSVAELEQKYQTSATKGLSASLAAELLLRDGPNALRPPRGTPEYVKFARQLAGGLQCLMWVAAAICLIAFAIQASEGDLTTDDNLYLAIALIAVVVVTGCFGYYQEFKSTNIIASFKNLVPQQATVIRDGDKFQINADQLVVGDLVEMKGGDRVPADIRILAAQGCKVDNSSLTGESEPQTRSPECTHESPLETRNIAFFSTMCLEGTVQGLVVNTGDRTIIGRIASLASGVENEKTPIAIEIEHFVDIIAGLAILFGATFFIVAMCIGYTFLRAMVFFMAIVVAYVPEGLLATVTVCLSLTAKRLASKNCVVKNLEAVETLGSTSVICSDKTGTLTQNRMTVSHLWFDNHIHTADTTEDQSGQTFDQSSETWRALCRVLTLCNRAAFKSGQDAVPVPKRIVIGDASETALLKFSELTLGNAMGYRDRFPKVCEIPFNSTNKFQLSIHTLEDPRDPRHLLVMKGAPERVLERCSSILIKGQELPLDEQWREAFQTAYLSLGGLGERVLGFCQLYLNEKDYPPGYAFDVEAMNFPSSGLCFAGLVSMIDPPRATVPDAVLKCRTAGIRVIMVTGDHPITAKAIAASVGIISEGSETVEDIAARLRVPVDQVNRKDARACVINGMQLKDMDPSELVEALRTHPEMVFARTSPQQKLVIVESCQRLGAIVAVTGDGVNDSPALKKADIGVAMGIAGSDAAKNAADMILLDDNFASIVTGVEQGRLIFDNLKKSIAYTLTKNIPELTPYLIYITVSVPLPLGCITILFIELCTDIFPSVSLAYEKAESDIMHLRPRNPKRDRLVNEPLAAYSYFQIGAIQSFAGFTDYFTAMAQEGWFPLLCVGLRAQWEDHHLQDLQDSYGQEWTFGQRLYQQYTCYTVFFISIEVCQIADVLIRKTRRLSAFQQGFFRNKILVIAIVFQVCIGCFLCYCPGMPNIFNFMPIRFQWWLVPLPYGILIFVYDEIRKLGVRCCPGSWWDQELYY
T1 sequence (P51164 whole entry partner): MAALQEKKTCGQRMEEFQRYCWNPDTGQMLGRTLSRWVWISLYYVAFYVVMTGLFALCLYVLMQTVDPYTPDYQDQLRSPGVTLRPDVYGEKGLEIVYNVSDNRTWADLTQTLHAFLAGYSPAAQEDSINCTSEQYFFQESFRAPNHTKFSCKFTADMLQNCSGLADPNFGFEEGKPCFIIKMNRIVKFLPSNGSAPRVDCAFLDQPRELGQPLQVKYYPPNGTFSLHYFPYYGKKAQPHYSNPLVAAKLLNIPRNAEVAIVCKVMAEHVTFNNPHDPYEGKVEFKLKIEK

| metabolised by (CYP3A4) | plasma half-life [1] [h] | metabolised through the hepatic CYP2C19 haplotypes (CYP2C19) | intragastric pH (H^+/K^+—ATPAs) [pH] | stability at neutral pH [2] | Compound | H. pylori (HP) eradication rate (H. pylori (HP)) [%] |
| --- | --- | --- | --- | --- | --- | --- |
| by the CYP3A4 system | 7 | not metabolised | > 4.0 | more stable | CNCc1cc(-c2ccccc2F)n(S(=O)(=O)c2cccnc2)c1.O=C(O)/C=C/C(=O)O [vonoprazan, 1-(5-(2-fluorophenyl)-1-(pyridin-3-ylsulfonyl)-1H-pyrrol-3-yl)-N-methylmethanamine fumarate] | – |
| – | – | – | – | – | Cc1c(OCC(F)(F)F)ccnc1C[S+]([O-])c1nc2ccccc2[nH]1 (stereo not drawn) [lansoprazole] | 76 |
